We go through one compound from US7435834B2, “2-thia-dibenzoazulenes as inhibitors of tumour necrosis factor production and intermediates for the preparation thereof” (GlaxoSmithKline Istrazivacki Center Zagreb D.O.O., priority 2002, dated 2008).

This assay deals with TNF-α and IL-1 secretion. Briefly: investigated assays, not specified which (TNF-α/IL-1 secretion in human PBMC and mouse peritoneal macrophages in vitro, LPS-induced TNF-α/IL-1 secretion in mice, writhing assay, LPS-induced shock in mice). To be noted: assays not named; active means: IC50 20 μM or lower (human PBMC), IC50 10 μM or lower (mouse macrophages), 30% or more TNF-α inhibition at 10 mg/kg, analgetic activity as acetylsalicylic acid or better, survival 40% or more at 30 mg/kg. How it is done: The inhibitory action of the present compounds upon TNF-α and IL-1 secretion was determined by the following in vitro and in vivo experiments:
Determination of TNF-α and IL-1 Secretion in Human Peripheral Blood Mononuclear Cells in vitro
Human peripheral blood mononuclear cells (PBMC) were prepared from heparinized whole blood after separating PBMC on Ficoll-Paque™Plus (Amersham-Pharmacia). […] The IL-1 level was determined in an assay under the same conditions and with the same number of cells and the same concentration of stimuli stimulus by ELISA procedure (R&D Systems). The percentage of inhibition of TNF-α or IL-1 production was calculated by the equation: % inhibition=[1−(TS−NC)/(PC−NC)]*100. […]
In order to obtain peritoneal macrophages, Balb/C mouse strain males, age 8 to 12 weeks, were injected i.p. with 300 μg of zymosan (SIGMA) dissolved in a phosphate buffer (PBS) in a total volume of 0.1 ml/mouse. […] The TNF-α level in the cell supernatant was determined by ELISA procedure (R&D Systems, Biosource). The IL-1 level was determined in an assay identical to the assay for TNF-α by ELISA procedure (R&D Systems). The percentage of inhibition of TNF-α or IL-1 production was calculated by the equation: % inhibition=[1−(TS−NC)/(PC−NC)]*100. […]

As to `O=Cc1scc2c1-c1ccccc1Sc1ccccc1-2` [Example 14, 2,8-Dithia-dibenzo[e,h]azulene-1-carbaldehyde], the “activity in investigated assays” value was “activity in at least two investigated assays”.
